Experimental findings from US20230115350A1 (Cedilla Therapeutics, Inc., priority 2021, published 2023) are described below.

Assay [1] concerns the target TEAD1 protein (YAP Binding Domain) (Homo sapiens, UniProt P28347). Description: TEAD1 lipid pocket compound displacement assay (TR-FRET, Cy5-probe). To be noted: 60 minutes incubation at room temperature; TR-FRET 665 nm/620 nm; read-out: CDA IC50. In outline:
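His-tagged TEAD1 YAP-binding domain pre-mixed with a Cy5-labelled lipid-pocket probe and Tb-anti-His antibody; compounds incubated with the complex 60 min at room temperature. TR-FRET read at 665/620 nm; IC50 from 4-parameter non-linear fit of probe displacement.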

Assay [2] relates to NCI-H226. Description: 72H TEAD Proliferation Assay (Cell Titer-Glo 2.0). Type of assay: cell-based. Particulars: CTG 2.0, cell line not given. In outline:
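NF2-deficient mesothelioma cells were seeded at 500 cells per well on 10-point half-log compound dilutions in duplicate and grown 72 hours at 37° C, 5% CO2. Viable cells were read by CellTiter-Glo 2.0 luminescence, background- and time-zero-subtracted; GI50 came from nonlinear regression of dose-response curves.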
Background: ATP-based viability assays read luminescence as a measure of living cells.

In assay [3] the target is His-Tev-Avi-TEAD1 (Homo sapiens, UniProt P28347). Description: TEAD mass modification assay (iMS). Type of assay: binding. To be noted: 50 μM compound, 1 hour, room temperature. As for the experimental part: Compound stock (10 mM) was diluted to 2.5 mM with DMSO and His-Tev-Avi-TEAD1 was diluted to 5 μM with Reaction Buffer (50 mM Tris pH 8.0, 150 mM NaCl, and 1 mM TCEP). Compound (1 μL) is incubated with 49 μL protein at room temperature for 1 hour (final compound concentration was 50 μM). The sample (20 μL) was shipped on dry ice to MSBioworks for iMS analysis.
Sequence of His-Tev-Avi-TEAD1 (P28347 209-426 limits assumed): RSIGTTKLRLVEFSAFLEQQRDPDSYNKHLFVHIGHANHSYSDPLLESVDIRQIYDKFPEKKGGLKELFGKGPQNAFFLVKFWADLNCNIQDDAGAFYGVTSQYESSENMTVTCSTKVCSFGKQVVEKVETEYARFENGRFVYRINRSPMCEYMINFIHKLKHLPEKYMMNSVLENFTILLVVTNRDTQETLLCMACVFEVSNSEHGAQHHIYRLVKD
This assay confirms whether or not TEAD is covalently bound to a test compound (i.e., whether the protein's mass is modified). […] Compounds 80 (see FIG. 2), 89 (see FIG. 3), 73 (see FIG. 4), 53 (see FIG. 5), and 59 (see FIG. 6) were also tested in this fashion.

Sequence of TEAD1 protein (YAP Binding Domain) (P28347 209-426 limits assumed): as above

For the compound `C=CC(=O)Nc1ccc(OCc2ccccc2Cl)c(F)c1` [Compound 53, N-(4-((2-chlorobenzyl)oxy)-3-fluorophenyl)acrylamide], in assay [1], the IC50 (commonly the concentration at which inhibition is half-maximal) lay in the range of 500 to 2000 nM. Moreover, in assay [2] (Homo sapiens, NCI-H226, 72 h), the GI50 – broadly, the concentration at which growth is held to half of that of the control – fell in the range of 1000 to 3000 nM. Further, the “mass modification of TEAD1 (covalent binding)” value (“mass modification” for short) in assay [3] is on record as “mass modification of TEAD1”.
For the compound `C=CC(=O)Nc1ccc(OCC2CCC(F)(F)CC2)c(F)c1` [Compound 58, N-(4-((4,4-difluorocyclohexyl)methoxy)-3-fluorophenyl)acrylamide], the IC50 in assay [1] is no more than 250 nM. In assay [2] (Homo sapiens, NCI-H226, 72 h), this compound had a GI50 of 250 to 1000 nM. The “mass modification” value in assay [3] is given as “mass shift indicates modification of TEAD1”. Moreover, the “mass of the protein treated with compound” value in assay [3] (untreated protein m/z 30,030.70) is on record as 30,344.29 m/z.
Regarding `C=CC(=O)Nc1ccc(OCC2CCC(C(F)(F)F)CC2)c(F)c1` (stereo not shown) [Compound 59, N-(3-fluoro-4-((4-(trifluoromethyl)cyclohexyl)methoxy)phenyl)acrylamide], in assay [1], the IC50 was no more than 250 nM. In assay [2] (Homo sapiens, NCI-H226, 72 h), the GI50 is greater than 3000 nM. In assay [3], the “mass modification” value is on record as “mass modification of TEAD1”.
The matching figures for `C=CC(=O)Nc1ccc(OCc2ccc(C(F)(F)F)nc2)c(F)c1` [Compound 73, N-(3-fluoro-4-((6-(trifluoromethyl)pyridin-3-yl)methoxy)phenyl)acrylamide]: 500 to 2000 nM, 250 to 1000 nM and “mass modification of TEAD1”.
In the case of `C=CC(=O)Nc1ccc(OCc2cccc(Cl)c2Cl)c(F)c1` [Compound 80, N-(4-((2,3-dichlorobenzyl)oxy)-3-fluorophenyl)acrylamide], in assay [1], the IC50 was no more than 250 nM. The GI50 in assay [2] (Homo sapiens, NCI-H226, 72 h) is 250 to 1000 nM. Also, the “mass modification” value in assay [3] is on record as “mass modification of TEAD1”.
Regarding `C=CC(=O)Nc1cc2nc(C3CCC(F)(F)CC3)oc2cc1F` [Compound 138, N-(2-(4,4-difluorocyclohexyl)-6-fluorobenzo[d]oxazol-5-yl)acrylamide], the IC50 in assay [1] fell in the range of 250 to 500 nM. Besides, in assay [2], the GI50 is 1000 to 3000 nM.
As for `C=CC(=O)Nc1cc2nc(CCC(F)(F)C(F)(F)F)oc2cc1F` [Compound 140, N-(6-fluoro-2-(3,3,4,4,4-pentafluorobutyl)benzo[d]oxazol-5-yl)acrylamide], the IC50 in assay [1] is no more than 250 nM. The GI50 in assay [2] (Homo sapiens, NCI-H226, 72 h) is no more than 250 nM.
Take `C=CC(=O)Nc1ccc2oc(CCCC(C)C)nc2c1F` [Compound 141, N-(4-fluoro-2-(4-methylpentyl)benzo[d]oxazol-5-yl)acrylamide]: the IC50 in assay [1] lay within 250 to 500 nM. In assay [2] (Homo sapiens, NCI-H226, 72 h), the GI50 fell in the range of 250 to 1000 nM.
Take `C=CC(=O)Nc1cc2nc(Cc3ccc(F)cc3)oc2cc1F` [Compound 142, N-(6-fluoro-2-(4-fluorobenzyl)benzo[d]oxazol-5-yl)acrylamide]: in assay [1], the IC50 was in the range of 500 to 2000 nM. Also, the GI50 in assay [2] (Homo sapiens, NCI-H226, 72 h) is 1000 to 3000 nM.
The like results for `C=CC(=O)Nc1cc2nc(CC(C)(C)C)oc2cc1F` [Compound 143, N-(6-fluoro-2-neopentylbenzo[d]oxazol-5-yl)acrylamide] were, in that order, 500 to 2000 nM and 250 to 1000 nM.
The matching figures for `C=CC(=O)Nc1cc2nc(CCC(F)(F)F)oc2cc1F` [Compound 144, N-(6-fluoro-2-(3,3,3-trifluoropropyl)benzo[d]oxazol-5-yl)acrylamide]: greater than 2000 nM and 250 to 1000 nM.
The like results for `C=CC(=O)Nc1cc2nc(CC3CC3C)oc2cc1F` (stereo not shown) [Compound 145, N-(6-fluoro-2-((2-methylcyclopropyl)methyl)benzo[d]oxazol-5-yl)acrylamide] were, in that order, 250 to 500 nM and no more than 250 nM.
Consider `C=CC(=O)Nc1ccc2c(c1)OC(c1cccc(C(F)(F)F)c1)O2` (stereo not shown) [Compound 146, N-(2-(3-(trifluoromethyl)phenyl)benzo[d][1,3]dioxol-5-yl)acrylamide], for which, in assay [1], the IC50 is no more than 250 nM. Further, the GI50 in assay [2] (Homo sapiens, NCI-H226, 72 h) is no more than 250 nM.
Take `C=C(F)C(=O)Nc1ccc2c(c1)OC(c1cccc(C(F)(F)F)c1)O2` (stereo not shown) [Compound 148, 2-fluoro-N-(2-(3-(trifluoromethyl)phenyl)benzo[d][1,3]dioxol-5-yl)acrylamide]: the IC50 in assay [1] is 500 to 2000 nM. Besides, the 50% growth inhibitory concentration (GI50) in assay [2] (Homo sapiens, NCI-H226, 72 h) lay in the range of 250 to 1000 nM.
The like results for `C=C(F)C(=O)Nc1ccc(OCC2CCC(F)(F)CC2)c(F)c1` [Compound 149, N-(4-((4,4-difluorocyclohexyl)methoxy)-3-fluorophenyl)-2-fluoroacrylamide] were, in that order, 250 to 500 nM and no more than 250 nM.
Consider `C=CC(=O)Nc1ccc(-c2ccc(C(F)(F)F)cc2)c2ncccc12` [Compound 150, N-(8-(4-(trifluoromethyl)phenyl)quinolin-5-yl)acrylamide], for which, in assay [1], the IC50 is no more than 250 nM. In addition, the GI50 in assay [2] (Homo sapiens, NCI-H226, 72 h) was no more than 250 nM.
Turning to `C=CC(=O)Nc1ccc(-c2ccc(C(C)(C)C)cc2)c2ncccc12` [Compound 151, N-(8-(4-(tert-butyl)phenyl)quinolin-5-yl)acrylamide], the IC50 in assay [1] was 250 to 500 nM. In assay [2] (Homo sapiens, NCI-H226, 72 h), this compound showed a GI50 of no more than 250 nM.
